# Test: Solid state solubility of PTX and TXT in polymers (phase separation in cast films)
# Assay type: physicochemical
# Design: key: +ve: Phase separation; −ve: No phase separation
# Source text: For this example, polymer and drug solutions in chloroform at different % of drug to polymer were casted into films on glass slides. Following solvent evaporation of chloroform in a chemical hood overnight, the casted films were observed under a light microscope. Phase separation was clearly evident from crystallization of the drug in the polymer film whereas the films were homogeneous when there was no phase separation.
structure (smiles),measurement,setting,value
"CC(=O)O[C@H]1C(=O)[C@@]2(C)[C@H]([C@H](OC(=O)c3ccccc3)[C@]3(O)C[C@H](OC(=O)[C@H](O)[C@@H](NC(=O)c4ccccc4)c4ccccc4)C(C)=C1C3(C)C)[C@]1(OC(C)=O)CO[C@@H]1C[C@@H]2O [Paclitaxel, 5ß,20-Epoxy-1,2a,4,7ß,10ß,13a-hexahydroxytax-11-en-9-one 4,10-diacetate 2-benzoate 13-ester with (2R,3S)-N-benzoyl-3-phenylisoserine]",Phase Separation,"drug 1% w/w, polymer inherent viscosity 0.16 dL/g, Lactide/Glycolide 50/50",+
same,Phase Separation,"drug 1% w/w, polymer inherent viscosity 0.18 dL/g, Lactide/Glycolide 75/25",+
same,Phase Separation,"drug 1% w/w, polymer inherent viscosity 0.26-0.54 dL/g, Lactide/Glycolide 50/50, Ester Terminated",−
same,Phase Separation,"drug 1% w/w, polymer inherent viscosity 0.39 dL/g, Lactide/Glycolide 50/50",+
same,Phase Separation,"drug 1% w/w, polymer inherent viscosity 0.55-0.75 dL/g, Lactide/Glycolide 50/50, Carbohydrate end Group",−
same,Phase Separation,"drug 1% w/w, polymer inherent viscosity 0.63 dL/g, Lactide/Glycolide 85/15",+
same,Phase Separation,"drug 1% w/w, polymer inherent viscosity 0.64 dL/g, Lactide/Glycolide 65/35",+
same,Phase Separation,"drug 1% w/w, polymer inherent viscosity 0.64 dL/g, Lactide/Glycolide 75/25",+
same,Phase Separation,"drug 1% w/w, polymer inherent viscosity 0.67 dL/g, Lactide/Glycolide 65/35",+
same,Phase Separation,"drug 1% w/w, polymer inherent viscosity 0.69 dL/g, Lactide/Glycolide 50/50 (first of two such lines, r12)",+
same,Phase Separation,"drug 1% w/w, polymer inherent viscosity 0.69 dL/g, Lactide/Glycolide 50/50 (second of two such lines, r13)",+
same,Phase Separation,"drug 1% w/w, polymer inherent viscosity 0.76-0.94 dL/g, Lactide/Glycolide 50/50",+
same,Phase Separation,"drug 1% w/w, polymer inherent viscosity 0.87 dL/g, Lactide/Glycolide 50/50",+
same,Phase Separation,"drug 1% w/w, polymer inherent viscosity 0.95-1.20 dL/g, Lactide/Glycolide 50/50",−
same,Phase Separation,"drug 1% w/w, polymer inherent viscosity 1.15 dL/g, Lactide/Glycolide 50/50",+
same,Phase Separation,"drug 1% w/w, polymer inherent viscosity 1.24 dL/g, Lactide/Glycolide 50/50",+
same,Phase Separation,"drug 5% w/w, polymer inherent viscosity 0.16 dL/g, Lactide/Glycolide 50/50",+
same,Phase Separation,"drug 5% w/w, polymer inherent viscosity 0.18 dL/g, Lactide/Glycolide 75/25",+
same,Phase Separation,"drug 5% w/w, polymer inherent viscosity 0.26-0.54 dL/g, Lactide/Glycolide 50/50, Ester Terminated",−
same,Phase Separation,"drug 5% w/w, polymer inherent viscosity 0.39 dL/g, Lactide/Glycolide 50/50",+
same,Phase Separation,"drug 5% w/w, polymer inherent viscosity 0.55-0.75 dL/g, Lactide/Glycolide 50/50, Carbohydrate end Group",−
same,Phase Separation,"drug 5% w/w, polymer inherent viscosity 0.63 dL/g, Lactide/Glycolide 85/15",+
same,Phase Separation,"drug 5% w/w, polymer inherent viscosity 0.64 dL/g, Lactide/Glycolide 65/35",+
same,Phase Separation,"drug 5% w/w, polymer inherent viscosity 0.64 dL/g, Lactide/Glycolide 75/25",+
same,Phase Separation,"drug 5% w/w, polymer inherent viscosity 0.67 dL/g, Lactide/Glycolide 65/35",+
same,Phase Separation,"drug 5% w/w, polymer inherent viscosity 0.69 dL/g, Lactide/Glycolide 50/50 (first of two such lines, r12)",+
same,Phase Separation,"drug 5% w/w, polymer inherent viscosity 0.69 dL/g, Lactide/Glycolide 50/50 (second of two such lines, r13)",+
same,Phase Separation,"drug 5% w/w, polymer inherent viscosity 0.76-0.94 dL/g, Lactide/Glycolide 50/50",+
same,Phase Separation,"drug 5% w/w, polymer inherent viscosity 0.87 dL/g, Lactide/Glycolide 50/50",+
same,Phase Separation,"drug 5% w/w, polymer inherent viscosity 0.95-1.20 dL/g, Lactide/Glycolide 50/50",−
same,Phase Separation,"drug 5% w/w, polymer inherent viscosity 1.15 dL/g, Lactide/Glycolide 50/50",+
same,Phase Separation,"drug 5% w/w, polymer inherent viscosity 1.24 dL/g, Lactide/Glycolide 50/50",+
same,Phase Separation,"drug 10% w/w, polymer inherent viscosity 0.16 dL/g, Lactide/Glycolide 50/50",+
same,Phase Separation,"drug 10% w/w, polymer inherent viscosity 0.18 dL/g, Lactide/Glycolide 75/25",+
same,Phase Separation,"drug 10% w/w, polymer inherent viscosity 0.26-0.54 dL/g, Lactide/Glycolide 50/50, Ester Terminated",−
same,Phase Separation,"drug 10% w/w, polymer inherent viscosity 0.39 dL/g, Lactide/Glycolide 50/50",+
same,Phase Separation,"drug 10% w/w, polymer inherent viscosity 0.55-0.75 dL/g, Lactide/Glycolide 50/50, Carbohydrate end Group",−
same,Phase Separation,"drug 10% w/w, polymer inherent viscosity 0.63 dL/g, Lactide/Glycolide 85/15",+
same,Phase Separation,"drug 10% w/w, polymer inherent viscosity 0.64 dL/g, Lactide/Glycolide 65/35",+
same,Phase Separation,"drug 10% w/w, polymer inherent viscosity 0.64 dL/g, Lactide/Glycolide 75/25",+
same,Phase Separation,"drug 10% w/w, polymer inherent viscosity 0.67 dL/g, Lactide/Glycolide 65/35",+
same,Phase Separation,"drug 10% w/w, polymer inherent viscosity 0.69 dL/g, Lactide/Glycolide 50/50 (first of two such lines, r12)",+
same,Phase Separation,"drug 10% w/w, polymer inherent viscosity 0.69 dL/g, Lactide/Glycolide 50/50 (second of two such lines, r13)",+
same,Phase Separation,"drug 10% w/w, polymer inherent viscosity 0.76-0.94 dL/g, Lactide/Glycolide 50/50",+
same,Phase Separation,"drug 10% w/w, polymer inherent viscosity 0.87 dL/g, Lactide/Glycolide 50/50",+
same,Phase Separation,"drug 10% w/w, polymer inherent viscosity 0.95-1.20 dL/g, Lactide/Glycolide 50/50",−
same,Phase Separation,"drug 10% w/w, polymer inherent viscosity 1.15 dL/g, Lactide/Glycolide 50/50",+
same,Phase Separation,"drug 10% w/w, polymer inherent viscosity 1.24 dL/g, Lactide/Glycolide 50/50",+
same,Phase Separation,"drug 15% w/w, polymer inherent viscosity 0.16 dL/g, Lactide/Glycolide 50/50",+
same,Phase Separation,"drug 15% w/w, polymer inherent viscosity 0.18 dL/g, Lactide/Glycolide 75/25",+
same,Phase Separation,"drug 15% w/w, polymer inherent viscosity 0.26-0.54 dL/g, Lactide/Glycolide 50/50, Ester Terminated",−
same,Phase Separation,"drug 15% w/w, polymer inherent viscosity 0.39 dL/g, Lactide/Glycolide 50/50",+
same,Phase Separation,"drug 15% w/w, polymer inherent viscosity 0.55-0.75 dL/g, Lactide/Glycolide 50/50, Carbohydrate end Group",−
same,Phase Separation,"drug 15% w/w, polymer inherent viscosity 0.63 dL/g, Lactide/Glycolide 85/15",+
same,Phase Separation,"drug 15% w/w, polymer inherent viscosity 0.64 dL/g, Lactide/Glycolide 65/35",+
same,Phase Separation,"drug 15% w/w, polymer inherent viscosity 0.64 dL/g, Lactide/Glycolide 75/25",+
same,Phase Separation,"drug 15% w/w, polymer inherent viscosity 0.67 dL/g, Lactide/Glycolide 65/35",+
same,Phase Separation,"drug 15% w/w, polymer inherent viscosity 0.69 dL/g, Lactide/Glycolide 50/50 (first of two such lines, r12)",+
same,Phase Separation,"drug 15% w/w, polymer inherent viscosity 0.69 dL/g, Lactide/Glycolide 50/50 (second of two such lines, r13)",+
same,Phase Separation,"drug 15% w/w, polymer inherent viscosity 0.76-0.94 dL/g, Lactide/Glycolide 50/50",+
same,Phase Separation,"drug 15% w/w, polymer inherent viscosity 0.87 dL/g, Lactide/Glycolide 50/50",+
same,Phase Separation,"drug 15% w/w, polymer inherent viscosity 0.95-1.20 dL/g, Lactide/Glycolide 50/50",−
same,Phase Separation,"drug 15% w/w, polymer inherent viscosity 1.15 dL/g, Lactide/Glycolide 50/50",+
same,Phase Separation,"drug 15% w/w, polymer inherent viscosity 1.24 dL/g, Lactide/Glycolide 50/50",+
same,Phase Separation,"drug 20% w/w, polymer inherent viscosity 0.16 dL/g, Lactide/Glycolide 50/50",+
same,Phase Separation,"drug 20% w/w, polymer inherent viscosity 0.18 dL/g, Lactide/Glycolide 75/25",+
same,Phase Separation,"drug 20% w/w, polymer inherent viscosity 0.26-0.54 dL/g, Lactide/Glycolide 50/50, Ester Terminated",−
same,Phase Separation,"drug 20% w/w, polymer inherent viscosity 0.39 dL/g, Lactide/Glycolide 50/50",+
same,Phase Separation,"drug 20% w/w, polymer inherent viscosity 0.55-0.75 dL/g, Lactide/Glycolide 50/50, Carbohydrate end Group",−
same,Phase Separation,"drug 20% w/w, polymer inherent viscosity 0.63 dL/g, Lactide/Glycolide 85/15",+
same,Phase Separation,"drug 20% w/w, polymer inherent viscosity 0.64 dL/g, Lactide/Glycolide 65/35",+
same,Phase Separation,"drug 20% w/w, polymer inherent viscosity 0.64 dL/g, Lactide/Glycolide 75/25",+
same,Phase Separation,"drug 20% w/w, polymer inherent viscosity 0.67 dL/g, Lactide/Glycolide 65/35",+
same,Phase Separation,"drug 20% w/w, polymer inherent viscosity 0.69 dL/g, Lactide/Glycolide 50/50 (first of two such lines, r12)",+
same,Phase Separation,"drug 20% w/w, polymer inherent viscosity 0.69 dL/g, Lactide/Glycolide 50/50 (second of two such lines, r13)",+
same,Phase Separation,"drug 20% w/w, polymer inherent viscosity 0.76-0.94 dL/g, Lactide/Glycolide 50/50",+
same,Phase Separation,"drug 20% w/w, polymer inherent viscosity 0.87 dL/g, Lactide/Glycolide 50/50",+
same,Phase Separation,"drug 20% w/w, polymer inherent viscosity 0.95-1.20 dL/g, Lactide/Glycolide 50/50",+
same,Phase Separation,"drug 20% w/w, polymer inherent viscosity 1.15 dL/g, Lactide/Glycolide 50/50",+
same,Phase Separation,"drug 20% w/w, polymer inherent viscosity 1.24 dL/g, Lactide/Glycolide 50/50",+

# Source: patent US11013817B2, “Nanoparticles for drug delivery to treat bone disease” (The Cleveland Clinic Foundation, priority 2016, dated 2021)
